In the supplement of paper PMC8617591:

Legend:
[1] = test system: Mycobacterium tuberculosis Erdman (autoluminescent); assay: total FIC50 (Loewe) at 50% inhibition, three-drug combination (log2); higher = more antagonistic
Protocol: (§1)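 DiaMOND equipotent three-drug combination dose responses (10 doses, 1.5- or 2-fold spacing, centred on IC90) against autoluminescent M. tuberculosis Erdman in 8 in vitro models. Read-out is OD600, or luminescence for the intracellular and dormancy models, normalised to untreated wells. Hill-fit Einf, AUC25 and GRinf are potency metrics; FIC50 and FIC90 are total Loewe fractional inhibitory concentrations as log2 (negative = synergy).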

[2] = test system: Mycobacterium tuberculosis Erdman (autoluminescent); assay: total FIC90 (Loewe) at 90% inhibition, three-drug combination (log2); higher = more antagonistic
Protocol: as §1

[3] = test system: Mycobacterium tuberculosis Erdman (autoluminescent); assay: Einf, fitted maximum growth inhibition of three-drug combination (fraction); higher = stronger maximal inhibition
Protocol: as §1

[4] = test system: Mycobacterium tuberculosis Erdman (autoluminescent); assay: AUC25, normalised area under dose response up to IC25 (three-drug combination) (fraction (0-1)); higher = more potent at low dose
Protocol: as §1

[5] = test system: Mycobacterium tuberculosis Erdman (autoluminescent); assay: GRinf, maximum normalised growth rate inhibition (three-drug combination) (unitless (-1 to 1)); higher = less effect (negative = killing)
Protocol: as §1

CC(C)/N=c1\cc2n(-c3ccc(Cl)cc3)c3ccccc3nc-2cc1Nc1ccc(Cl)cc1 [clofazimine] + CC[C@@H](CO)NCCN[C@@H](CC)CO [ethambutol] + CO[C@H]1/C=C/O[C@@]2(C)Oc3c(C)c(O)c4c(O)c(c(/C=N/N5CCN(C6CCCC6)CC5)c(O)c4c3C2=O)NC(=O)/C(C)=C\C=C\[C@H](C)[C@H](O)[C@@H](C)[C@@H](O)[C@@H](C)[C@H](OC(C)=O)[C@@H]1C [rifapentine]
Settings | AUC25, [4] | Einf, [3] | GRinf, [5] | total FIC50, [1] | total FIC90, [2]
in vitro model: acidic pH 5.7, time point: constant (~7 days, model-specific) | 0.0945 | 0.877 | -0.109 | 0.153 | –
in vitro model: acidic pH 5.7, time point: terminal (~4-5 doublings, model-specific) | 0.0736 | 0.978 | -0.14 | 0.358 | 0.125
in vitro model: intracellular J774, time point: constant = terminal | – | 0.973 | -0.172 | – | -1.79

Settings | AUC25, [4] | Einf, [3] | GRinf, [5] | total FIC50, [1] | total FIC90, [2]
in vitro model: butyrate, time point: constant (~7 days, model-specific) | 0.083 | 0.942 | -0.0595 | 0.37 | –
in vitro model: butyrate, time point: terminal (~4-5 doublings, model-specific) | 0.0656 | 0.972 | -0.043 | 0.422 | -0.0851
in vitro model: cholesterol 0.05 mM, time point: constant (~7 days, model-specific) | 0.111 | 0.703 | -0.0332 | – | –
in vitro model: cholesterol 0.05 mM, time point: terminal (~4-5 doublings, model-specific) | 0.0974 | 0.871 | -0.122 | 1.66 | –
in vitro model: cholesterol-high 0.2 mM, time point: constant (~7 days, model-specific) | 0.0285 | 0.928 | -0.371 | 1.18 | –
in vitro model: cholesterol-high 0.2 mM, time point: terminal (~4-5 doublings, model-specific) | 0.0668 | 1 | -0.81 | 1.37 | 1.24
in vitro model: dormancy (butyrate + nitrate, low O2), time point: constant (~7 days, model-specific) | 0.105 | 0.823 | 0.414 | -0.127 | –
in vitro model: dormancy (butyrate + nitrate, low O2), time point: terminal (~4-5 doublings, model-specific) | 0.128 | 0.99 | -0.336 | 0.0752 | 0.891
in vitro model: standard 7H9 glycerol, time point: constant = terminal | 0.105 | 0.92 | 0.0206 | -0.0963 | –
in vitro model: valerate, time point: constant (~7 days, model-specific) | 0.126 | 0.889 | 0.017 | 1.07 | –
in vitro model: valerate, time point: terminal (~4-5 doublings, model-specific) | 0.0898 | 0.925 | 0.0199 | 0.462 | 0.841

CC(C)/N=c1\cc2n(-c3ccc(Cl)cc3)c3ccccc3nc-2cc1Nc1ccc(Cl)cc1 [clofazimine] + CC[C@@H](CO)NCCN[C@@H](CC)CO [ethambutol] + CO[C@H]1/C=C/O[C@@]2(C)Oc3c(C)c(O)c4c(O)c(c(/C=N/N5CCN(C)CC5)c(O)c4c3C2=O)NC(=O)/C(C)=C\C=C\[C@H](C)[C@H](O)[C@@H](C)[C@@H](O)[C@@H](C)[C@H](OC(C)=O)[C@@H]1C [rifampicin]
Settings | AUC25, [4] | Einf, [3] | GRinf, [5] | total FIC50, [1] | total FIC90, [2]
in vitro model: acidic pH 5.7, time point: constant (~7 days, model-specific) | 0.0857 | 0.88 | -0.0788 | -0.0594 | –
in vitro model: acidic pH 5.7, time point: terminal (~4-5 doublings, model-specific) | 0.0645 | 0.973 | -0.112 | 0.213 | -0.308
in vitro model: intracellular J774, time point: constant = terminal | – | 0.969 | -0.295 | – | -2.37

Settings | AUC25, [4] | Einf, [3] | GRinf, [5] | total FIC50, [1] | total FIC90, [2]
in vitro model: butyrate, time point: constant (~7 days, model-specific) | 0.0971 | 0.95 | -0.114 | 0.276 | –
in vitro model: butyrate, time point: terminal (~4-5 doublings, model-specific) | 0.1 | 0.982 | -0.114 | 0.306 | 0.441
in vitro model: cholesterol 0.05 mM, time point: constant (~7 days, model-specific) | 0.126 | 0.684 | -0.277 | – | –
in vitro model: cholesterol 0.05 mM, time point: terminal (~4-5 doublings, model-specific) | 0.0974 | 0.785 | 0.17 | 2.31 | –
in vitro model: cholesterol-high 0.2 mM, time point: constant (~7 days, model-specific) | 0.0508 | 0.93 | -0.277 | 0.891 | –
in vitro model: cholesterol-high 0.2 mM, time point: terminal (~4-5 doublings, model-specific) | 0.0801 | 1 | -0.923 | 1.24 | 1.32
in vitro model: dormancy (butyrate + nitrate, low O2), time point: constant (~7 days, model-specific) | 0.0958 | 0.828 | 0.515 | 0.137 | –
in vitro model: dormancy (butyrate + nitrate, low O2), time point: terminal (~4-5 doublings, model-specific) | 0.0873 | 0.991 | -0.158 | 0.0335 | -0.232
in vitro model: standard 7H9 glycerol, time point: constant = terminal | 0.0958 | 0.922 | 0.048 | -0.0461 | –
in vitro model: valerate, time point: constant (~7 days, model-specific) | 0.0993 | 0.858 | 0.045 | 0.749 | –
in vitro model: valerate, time point: terminal (~4-5 doublings, model-specific) | 0.0696 | 0.929 | 0.036 | 0.485 | -0.638
